Reference: PMC11274883, “Anticancer Effect of Pt^[sequence], Pt^II5MESS, Pt^II56MESS and Their Platinum(IV)-Dihydroxy Derivatives against Triple-Negative Breast Cancer and Cisplatin-Resistant Colorectal Cancer” (Cancers, 2024)

Columns and labels:
Type in all cases: cell-based
MDA−MB−231 cells [1] = assay: Western blot protein expression; details: MDA−MB−231, IC50, 72 h
Method: (§1) Protein extraction was then performed on ice. Media were collected in Eppendorf tubes, and centrifuged at 500× g for 5 min at 4 °C. Meanwhile, 200 µL of lysis RIPA buffer, made up of 150 mM NaCl, 50 mM Tris-HCl, pH 8.0, 0.1% Triton X-100, 0.5% sodium deoxycholate, 0.1% SDS and 1 mM sodium orthovanadate, was added to each well, the cells were scrapped into the buffer, and added to the media-derived pellets. The tubes were placed on the shaker for 10 min at 4 °C. Then, cell extracts were centrifuged at 12,000× g for 15 min at 4 °C, and the supernatants (containing the proteins) were collected. The Bio-Rad-DC protein assay (Bio-Rad, Hercules, CA, USA) was used to assess protein content. Laemmli protein sample buffer (4×) with β-mercaptoethanol (9%) was used to prepare a final protein concentration of 20 µg. The samples were then heated at 100 °C for 5 min. A final volume of 30 µL of each sample was added per well and subjected to SDS-PAGE using Bolt 4–12% Bis-Tris gel (Thermo Fisher, Eugene, OR, USA) at 80 V for 30 min and then 120 V for 60 min with PageRuler™ Prestained Protein or SeeBlue Prestained Protein Ladder (Thermo Fisher, Eugene, OR, USA). Proteins were subsequently transferred to a 0.2 µm PVDF membrane (Amersham, Cytiya) using a semi-dry blot transfer. The membrane was then blocked in 5% BSA in TBST, for 1 h and probed overnight at 4 °C with primary antibodies against several cell proliferation, apoptotic, anti-apoptotic, microtubule and autophagic protein markers listed in Table S7 as per the manufacturer’s protocol. The primary antibody was then removed, washed three times for 10 min with TBST and then membranes were treated with either mouse or rabbit HRP-coupled secondary antibodies (1/3000) for 1 h and 30 min. Protein band detection was then performed using the chemiluminescence ECL kit (Thermo Fisher, Eugene, OR, USA). Blot images were obtained using the Odyssey® FC imaging system (LI-COR Biosciences, Lincoln, NE, USA) and band intensities were quantified relatively to glyceraldehyde-3-phosphate dehydrogenase (GAPDH) and then normalised each replicate gel to its corresponding no treatment control using the ImageJ v1.53t software (National Institutes of Health, Bethesda, MD, USA). Each marker results from the same experiment or parallel experiment where the gels were processed in parallel. Three independent experiments per marker were conducted.

HT29 cells [2] = assay: Western blot protein expression; details: HT29, IC50, 72 h
Method: as §1

MDA−MB−231 cells [3] = assay: TMRE mitochondrial membrane potential assay; details: complexes at IC50, FCCP 20 µM
Method: (§2) Cells were then treated with an IC50 drug concentration for each complex. At 24, 48 or 72 h, DMEM was removed, and cells were washed with PBS. Then, cells were incubated with 1 µM tetramethylrhodamine, ethyl ester (TMRE) stain for 30 min. TMRE was then removed, and cells were washed twice with PBS (0.2% BSA), after which phenol red-free media was added. […] The cells were then stained with TMRE, as described above, and the resulting solution was scanned for fluorescence. Three independent experiments in triplicates were implemented.

HT29 cells [4] = assay: TMRE mitochondrial membrane potential assay; details: complexes at IC50, FCCP 20 µM
Method: as §2

[5] = representative blot Figure S30G
[6] = representative blot Figure S30H

## Cc1cc2cccnc2c2ncccc12.N[C@H]1CCCC[C@@H]1N.O=[N+]([O-])[O-].O=[N+]([O-])[O-].[Pt+2] [Pt^II5MESS, [Pt(5-methyl-1,10-phenanthroline)(1S,2S-diaminocyclohexane)](NO3)2]
MDA−MB−231 cells [1]; representative blot Figure S24A
  β-actin/GAPDH normalized to control (1): 0.7082
MDA−MB−231 cells [1]; representative blot Figure S24B
  β-tubulin/GAPDH normalized to control (1): 0.4163
MDA−MB−231 cells [1]; representative blot Figure S24C
  α-tubulin/GAPDH normalized to control (1): 0.6399
MDA−MB−231 cells [1]; representative blot Figure S25A
  p-AKT/AKT/GAPDH normalized to control (1): 0.5388
MDA−MB−231 cells [1]; representative blot Figure S25B
  p-ERK/ERK/GAPDH normalized to control (1): 0.5947
MDA−MB−231 cells [1]; representative blot Figure S25C
  p53/GAPDH normalized to control (1): 0.7809
MDA−MB−231 cells [1]; representative blot Figure S25D
  p21/GAPDH normalized to control (1): 2.478
MDA−MB−231 cells [1]; representative blot Figure S26A
  Bax/GAPDH normalized to control (1): 1.886
MDA−MB−231 cells [1]; representative blot Figure S26B
  Bcl2/GAPDH normalized to control (1): 0.5074
MDA−MB−231 cells [1]; representative blot Figure S26C
  Cytochrome C/GAPDH normalized to control (1): 1.513
MDA−MB−231 cells [1]; representative blot Figure S26D
  Procaspase 8/GAPDH normalized to control (1): 0.5099
MDA−MB−231 cells [1]; representative blot Figure S26E
  Cleaved BID/GAPDH normalized to control (1): 14.29
MDA−MB−231 cells [1]; representative blot Figure S26F
  Procaspase 9/GAPDH normalized to control (1): 0.3101
MDA−MB−231 cells [1]; representative blot Figure S26G
  Procaspase 3/GAPDH normalized to control (1): 0.5405
MDA−MB−231 cells [1]; representative blot Figure S26H
  PARP-1/GAPDH normalized to control (1): 0.7693
MDA−MB−231 cells [1]; representative blot Figure S27A
  Beclin1/GAPDH normalized to control (1): 2.588
MDA−MB−231 cells [1]; representative blot Figure S27B
  ATG5/GAPDH normalized to control (1): 0.5948
MDA−MB−231 cells [1]; representative blot Figure S27C
  ATG16L1/GAPDH normalized to control (1): 0.4742
MDA−MB−231 cells [1]; representative blot Figure S27D
  ATG9A/GAPDH normalized to control (1): 0.2882
MDA−MB−231 cells [1]; representative blot Figure S27E
  ATG4B/GAPDH normalized to control (1): 1.839
MDA−MB−231 cells [1]; representative blot Figure S27F
  LC3B/GAPDH normalized to control (1): 0.9366
HT29 cells [2]; representative blot Figure S28A
  β-actin/GAPDH normalized to control (1): 0.2979
HT29 cells [2]; representative blot Figure S28B
  β-tubulin/GAPDH normalized to control (1): 0.1238
HT29 cells [2]; representative blot Figure S28C
  α-tubulin/GAPDH normalized to control (1): 0.06789
HT29 cells [2]; representative blot Figure S29A
  p-AKT/AKT/GAPDH normalized to control (1): 0.07338
HT29 cells [2]; representative blot Figure S29B
  p-ERK/ERK/GAPDH normalized to control (1): 0.7076
HT29 cells [2]; representative blot Figure S29C
  p53/GAPDH normalized to control (1): 1.275
HT29 cells [2]; representative blot Figure S29D
  p21/GAPDH normalized to control (1): 1.147
HT29 cells [2]; representative blot Figure S30A
  Bax/GAPDH normalized to control (1): 1.624
HT29 cells [2]; representative blot Figure S30B
  Bcl2/GAPDH normalized to control (1): 0.09591
HT29 cells [2]; representative blot Figure S30C
  Cyt C/GAPDH normalized to control (1): 3.741
HT29 cells [2]; representative blot Figure S30D
  Procaspase 8/GAPDH normalized to control (1): 0.2934
HT29 cells [2]; representative blot Figure S30E
  Cleaved BID/GAPDH normalized to control (1): 1.69
HT29 cells [2]; representative blot Figure S30F
  Procaspase 9/GAPDH normalized to control (1): 0.1393
HT29 cells [2]; [5]
  Cleaved caspase 3/GAPDH normalized to control (1): 10.88
  Procaspase 3/GAPDH normalized to control (1): 0.7678
HT29 cells [2]; [6]
  Cleaved PARP-1/GAPDH normalized to control (1): 11.42
  PARP-1/GAPDH normalized to control (1): 0.2554
HT29 cells [2]; representative blot Figure S31A
  Beclin1/GAPDH normalized to control (1): 3.11
HT29 cells [2]; representative blot Figure S31B
  ATG5/GAPDH normalized to control (1): 0.9969
HT29 cells [2]; representative blot Figure S31C
  ATG16L1/GAPDH normalized to control (1): 1.285
HT29 cells [2]; representative blot Figure S31D
  ATG9A/GAPDH normalized to control (1): 0.4486
HT29 cells [2]; representative blot Figure S31E
  ATG4B/GAPDH normalized to control (1): 0.7306
HT29 cells [2]; representative blot Figure S31F
  LC3B/GAPDH normalized to control (1): 1.207
MDA−MB−231 cells [3]; MDA−MB−231, 24 h
  MtMp (mitochondrial membrane potential): 230.62 RFU
MDA−MB−231 cells [3]; MDA−MB−231, 48 h
  MtMp (mitochondrial membrane potential): 189.85 RFU
MDA−MB−231 cells [3]; MDA−MB−231, 72 h
  MtMp (mitochondrial membrane potential): 150.71 RFU
HT29 cells [4]; HT29, 24 h
  MtMp (mitochondrial membrane potential): 253.81 RFU
HT29 cells [4]; HT29, 48 h
  MtMp (mitochondrial membrane potential): 211.88 RFU
HT29 cells [4]; HT29, 72 h
  MtMp (mitochondrial membrane potential): 143.93 RFU
